According to paper PMC12693182, “Synthesis and QSAR Studies of Claramine Derivatives, a New Class of Broad-Spectrum Antimicrobial Agents” (Molecules, 2025):
Converted amounts (≈) assume the structure as drawn.

System: Chinese hamster Ovary cells (CHO-K1)
Assay: Cytotoxicity assay (WST-1 / Neutral Red)
Assay type: cell-based
Conditions: Cricetulus griseus, 24 h, 24-h incubation
Description: The cytotoxic activities of compounds were assessed on Chinese hamster Ovary cells (CHO-K1) provided from ATCC-LGC Standards Sarl (Molsheim, France). Cells were maintained in Mc Coy’s 5A (CHO) medium supplemented with 10% bovine calf serum, 2 mM glutamine, and 100 U mL^−1/10 µg mL^−1 penicillin/streptomycin mixtures. For the cytotoxicity experiments, they were seeded in 96-well plates and incubated at 37 °C in humidified atmosphere containing 5% CO2 overnight, then concentrations of compounds were incorporated in triplicate cultures. After a 24-h incubation period at 37 °C, cells were submitted to three successive washes in phosphate buffer saline (PBS) and cell viability was evaluated by two different vital dyes: • i. A first set of cell cultures was incubated in PBS containing 10% WST-1 for 30 min at 37 °C, 5% CO2. Cell viability was evaluated by the assessment of WST-1 absorbance at 450 nm in a microplate spectrophotometer. • ii. A second set of cell cultures was placed into Neutral Red medium (50 μg mL^−1 Neutral Red in complete medium) and incubated for 3 h at 37 °C, 5% CO2. Then the Neutral Red medium was removed and the distaining solution (50% ethanol, 1% acetic acid, 49% distilled water; 50 µL per well) was added into the wells. The plates were shaken for 15–20 min at room temperature in the dark. Cell viability was evaluated by the assessment of absorbance at 540 nm in a microplate spectrophotometer.
Results were expressed as percentages of cell viability about the control (culture medium-only), which corresponded to 100% cell viability. Dose-response curves were calculated by non-linear regression analysis with TableCurve 2D software (V 5.0.1) (Systat Software Inc., San Jose, CA, USA). The Inhibitory Concentration 50% (IC50) was defined as the concentration of compounds that induced a 50% decrease of viable cells.

| SMILES | IC50 |
| --- | --- |
| COC(=O)CCC(C)C1CCC2C3CCC4CC(NCCCNCCCCNCCCN)CCC4(C)C3CC(O)C12C (stereo not drawn) [Claramine A05] | 8 µg/mL (≈ 13.5 µM) |

System: S. aureus 340 and P. aeruginosa 1051575
Assay: MIC against S. aureus and P. aeruginosa strains (Figure 6)
Assay type: cell-based
Conditions: range over both strains, C-24 methyl ester series
Description: Antimicrobial activity of the compounds was studied by determination of minimal inhibitory concentrations (MIC) according to the NCCLS guidelines M7-A2 using the microbroth dilution methods. The bacteria strains were grown on trypticase soy agar (Becton Dickinson) at 37 °C for 24 h. Inocula were prepared in TCE (tryptone 0.1%, […], wt/vol) by ajusting the turbidity at 623 nm to obtain 1–3 10^5 CFU/mL.
Antimicrobial activities of the compounds were determined by using a broth microdilution method performed in sterile 96-well microplates. All compounds were solubilized in water at a concentration of 10 mM and were transferred to each microplate well in order to obtain a two-fold serial dilution in 100 µL of broth and 100 µL of inoculum containing 2–6 10^5 CFU of each bacterium were added to each well. Some wells were reserved for positive controls and inoculum viability.

| SMILES | MIC |
| --- | --- |
| COC(=O)CCC(C)C1CCC2C3CCC4CC(NCCCNCCCCNCCCN)CCC4(C)C3CC(O)C12C (stereo not drawn) [Claramine A05] | 2 to 4 µg/mL (≈ 3.38 to 6.77 µM) |
| COC(=O)CCC(C)C1CCC2C3CCC4CC(NCCCCN)CCC4(C)C3CC(O)C12C (stereo not drawn) [Claramine A11] | 6 to 50 µg/mL (≈ 12.6 to 105 µM) |
| COC(=O)CCC(C)C1CCC2C3CCC4CC(NCCCCCN)CCC4(C)C3CC(O)C12C (stereo not drawn) [Claramine A12] | 6 to 50 µg/mL (≈ 12.2 to 102 µM) |
| COC(=O)CCC(C)C1CCC2C3CCC4CC(NCCCN(C)CCCN)CCC4(C)C3CC(O)C12C (stereo not drawn) [Claramine A16] | 7 to 14 µg/mL (≈ 13.1 to 26.2 µM) |
| COC(=O)CCC(C)C1CCC2C3CCC4CC(NCCCN(CCCN)CCCN)CCC4(C)C3CC(O)C12C (stereo not drawn) [Claramine A17] | 7 to 14 µg/mL (≈ 12.1 to 24.3 µM) |
